Source: ChEMBL document CHEMBL3352231, “Conformational analysis of an anti-androgenic, (E,E)-8-hydroxygermacrene B, using NOESY and dynamic NMR spectroscopy” (Bioorg Med Chem Lett, 2014)

Target: T1, 3-oxo-5-alpha-steroid 4-dehydrogenase 1 (Rattus norvegicus, UniProt P24008)
T1 sequence (P24008 whole entry): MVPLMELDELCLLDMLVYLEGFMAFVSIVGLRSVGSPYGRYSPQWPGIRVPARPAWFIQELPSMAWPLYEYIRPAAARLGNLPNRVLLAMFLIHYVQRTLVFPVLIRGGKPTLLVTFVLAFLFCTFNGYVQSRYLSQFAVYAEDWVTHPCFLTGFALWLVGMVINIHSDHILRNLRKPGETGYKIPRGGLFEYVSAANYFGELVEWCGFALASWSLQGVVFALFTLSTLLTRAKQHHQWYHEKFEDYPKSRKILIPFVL
Assay: Inhibition of Sprague-Dawley rat liver steroid 5-alpha-reductase assessed as inhibition of testosterone conversion to dihydrotestosterone incubated for 30 mins by HPLC method

| IC50 [µM] | Compound |
| --- | --- |
| 960 | C#C[C@]1(O)CC[C@H]2[C@@H]3CCc4cc(O)ccc4[C@H]3CC[C@@]21C [ETHINYL ESTRADIOL] |
| 1940 | CC(C)=C1C/C=C(/C)CC/C=C(/C)CC1=O |
